Experimental data: PubChem BioAssay (NCI)
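Where inhibition never reached the appropriate level, the endpoint shown equals the highest concentration tested. Otherwise, values were interpolated linearly from a five-concentration, 48-hour dose response in 96-well plates. TGI: concentration producing complete growth inhibition.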

Legend:
Assay in all cases: DTP human tumour cell line panel, 48 h
PC-3 prostate = test system: PC-3 prostate
HCT-116 colon = test system: HCT-116 colon
SF-539 CNS = test system: SF-539 CNS
OVCAR-3 ovarian = test system: OVCAR-3 ovarian
SNB-75 CNS = test system: SNB-75 CNS
SK-MEL-2 melanoma = test system: SK-MEL-2 melanoma
EKVX NSCLC = test system: EKVX NSCLC
KM12 colon = test system: KM12 colon
HOP-92 NSCLC = test system: HOP-92 NSCLC
SW-620 colon = test system: SW-620 colon
IGROV1 ovarian = test system: IGROV1 ovarian
SK-MEL-28 melanoma = test system: SK-MEL-28 melanoma
NCI/ADR-RES ovarian = test system: NCI/ADR-RES ovarian

Row | SMILES | TGI (PC-3 prostate) | TGI (HCT-116 colon) | TGI (SF-539 CNS) | TGI (OVCAR-3 ovarian) | TGI (SNB-75 CNS) | TGI (SK-MEL-2 melanoma) | TGI (EKVX NSCLC) | TGI (KM12 colon) | TGI (HOP-92 NSCLC) | TGI (SW-620 colon) | TGI (IGROV1 ovarian) | TGI (SK-MEL-28 melanoma) | TGI (NCI/ADR-RES ovarian)
1 | COc1cccc(-n2nnc3c(N)nc(N)nc32)c1 | > 100 µM | > 100 µM | > 100 µM | > 100 µM | > 100 µM | > 100 µM | > 100 µM | > 100 µM | > 100 µM | > 100 µM | > 100 µM | > 100 µM | > 100 µM
2 | COc1cc(/C=C\c2ccc(SC)cc2)cc(OC)c1OC | > 100 µM | > 26.3 µM | 0.0364 µM | 57.8 µM | > 100 µM | 0.841 µM | > 100 µM | 2.8 µM | > 46.1 µM | > 100 µM | > 17.1 µM | > 100 µM | > 100 µM
3 | CC(C)(C)[Si](C)(C)OCC1OC(n2ccc(=O)[nH]c2=O)C(O[Si](C)(C)C(C)(C)C)/C1=N/O (configuration not stated) | 13.7 µM | 7.11 µM | 10.9 µM | > 100 µM | 46.1 µM | 9.48 µM | 16.1 µM | > 22.6 µM | 8.95 µM | > 37.8 µM | 15.6 µM | 9.69 µM | 8.79 µM
4 | CCN(CC)P1(=S)Oc2ccc3ccccc3c2-c2c(ccc3ccccc23)O1 | > 100 µM | > 100 µM | > 100 µM | > 100 µM | > 100 µM | > 100 µM | > 100 µM | > 100 µM | > 100 µM | > 100 µM | > 100 µM | > 100 µM | > 100 µM
5 | Brc1ccc(-c2ccc(-c3ccc(Br)s3)s2)s1 | > 100 µM | > 100 µM | > 100 µM | > 100 µM | > 100 µM | > 100 µM | > 100 µM | > 100 µM | > 100 µM | > 100 µM | > 100 µM | > 100 µM | > 100 µM
6 | COc1ccccc1NC(=S)N/N=C(/c1ccccc1)c1ccccn1 | 16.7 µM | 14.7 µM | 12 µM | 16.5 µM | 24.7 µM | 21.7 µM | 5.46 µM | 14 µM | 15.6 µM | 18.4 µM | 17.6 µM | 23.9 µM | 11.3 µM
7 | CC(C)(C)c1cc(C2COC(=O)COCCOCC(=O)OCCOCCO2)cc(C(C)(C)C)c1O (configuration not stated) | 63.3 µM | > 100 µM | > 100 µM | > 100 µM | 49.6 µM | > 100 µM | > 100 µM | > 100 µM | 59.4 µM | > 100 µM | > 100 µM | > 100 µM | > 100 µM
8 | Cc1[nH]n(C(=O)c2ccccc2O)c(=O)c1/C=C1\C(=O)C=Cc2ccccc21 | 23 µM | > 45.5 µM | 3.35 µM | 1.2 µM | 10.4 µM | 17.2 µM | 19.4 µM | > 74.1 µM | 28.7 µM | > 100 µM | 11.5 µM | 71.6 µM | 11 µM
9 | Cc1ccc(Nc2ncnc3sc(SCc4ccccc4)nc23)cc1 | > 100 µM | > 100 µM | > 100 µM | > 100 µM | > 100 µM | > 100 µM | > 100 µM | > 100 µM | > 100 µM | > 100 µM | > 100 µM | > 100 µM | > 100 µM
